Measurements from PubChem BioAssay (NCI).
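Exposure lasted 48 hours, with cells grown in 96-well plates and compounds tested at five concentrations. TGI: concentration producing complete growth inhibition.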

What was measured:
Test in all cases: NCI tumour cell line growth inhibition, 48 h
A549 NSCLC = tested on: A549 NSCLC
CAKI-1 renal = tested on: CAKI-1 renal
CCRF-CEM leukemia = tested on: CCRF-CEM leukemia
EKVX NSCLC = tested on: EKVX NSCLC
HCC-2998 colon = tested on: HCC-2998 colon
HCT-15 colon = tested on: HCT-15 colon
K-562 leukemia = tested on: K-562 leukemia
KM12 colon = tested on: KM12 colon
LOX IMVI melanoma = tested on: LOX IMVI melanoma
MALME-3M melanoma = tested on: MALME-3M melanoma
NCI-H226 lung = tested on: NCI-H226 lung
RPMI-8226 leukemia = tested on: RPMI-8226 leukemia
SF-268 CNS = tested on: SF-268 CNS
SK-MEL-2 melanoma = tested on: SK-MEL-2 melanoma
SN12C renal = tested on: SN12C renal
SNB-19 CNS = tested on: SNB-19 CNS
SW-620 colon = tested on: SW-620 colon
TK-10 renal = tested on: TK-10 renal
UO-31 renal = tested on: UO-31 renal
SK-OV-3 ovarian = tested on: SK-OV-3 ovarian

SMILES	TGI (A549 NSCLC) [µM]	TGI (CAKI-1 renal) [µM]	TGI (CCRF-CEM leukemia) [µM]	TGI (EKVX NSCLC) [µM]	TGI (HCC-2998 colon) [µM]	TGI (HCT-15 colon) [µM]	TGI (K-562 leukemia) [µM]	TGI (KM12 colon) [µM]	TGI (LOX IMVI melanoma) [µM]	TGI (MALME-3M melanoma) [µM]	TGI (NCI-H226 lung) [µM]	TGI (RPMI-8226 leukemia) [µM]	TGI (SF-268 CNS) [µM]	TGI (SK-MEL-2 melanoma) [µM]	TGI (SN12C renal) [µM]	TGI (SNB-19 CNS) [µM]	TGI (SW-620 colon) [µM]	TGI (TK-10 renal) [µM]	TGI (UO-31 renal) [µM]	TGI (SK-OV-3 ovarian) [µM]
CS(=O)(=O)NNS(=O)(=O)c1ccc(F)cc1	> 100	> 100	> 100	> 100	> 100	> 100	> 100	> 100	> 100	> 100	> 100	> 100	> 100	> 100	> 100	> 100	> 100	> 100	> 100	–
Oc1ccc(C2Oc3cc(O)cc4c3C2c2cc(O)cc3c2C(c2cc(O)cc5c2C4C(c2ccc(O)cc2)O5)C(c2ccc(O)cc2)O3)cc1 (configuration not stated)	> 25	> 25	> 25	> 25	> 25	> 25	> 25	> 25	> 25	20.7	17.3	24.3	> 25	12.3	> 25	> 25	> 25	> 25	> 25	–
CNC(=O)N1CN(c2ccccc2)C2(CCN(Cc3ccccc3)CC2)C1=O	> 100	> 100	> 100	> 100	39.8	> 100	> 100	> 100	> 100	> 100	> 100	> 100	> 100	–	> 100	> 100	> 100	> 100	> 100	> 100
C[N+](C)(C)C1CC([N+](C)(C)C)C2c3ccccc3C21 (configuration not stated)	> 100	> 100	> 100	> 100	> 100	> 100	> 100	> 100	> 100	> 100	> 100	> 100	> 100	–	> 100	> 100	> 100	> 100	> 100	> 100
O=C(O)c1ccccc1/C=C1/Cc2ccc3c(c2C1=O)CCC3	> 100	> 100	> 100	> 100	72.1	> 100	> 100	> 100	39.5	> 100	90.8	57.4	> 100	44.9	> 100	> 100	> 100	> 100	> 100	–
O=S1(=O)c2cc(S(=O)(=O)n3ccnc3)ccc2NC2=NCCCN21	> 100	> 100	73.3	> 100	55.3	–	> 100	89.5	> 100	> 100	46.7	> 100	> 100	–	> 100	> 100	73.8	> 100	> 100	46.9
N#Cc1sc2c(c1OC(=O)c1ccc(Cl)cc1Cl)c(=O)n(-c1ccccc1)c(=S)n2-c1ccccc1	> 100	54.5	26.7	65.1	> 100	59.5	68	89.7	39.8	–	66.8	60	> 100	–	57.8	60.6	72.7	92.5	0.424	> 100
N#Cc1ccccc1NC(=O)C(=O)C(C(=O)c1ccncc1)C1OC(=O)c2ccccc21 (configuration not stated)	> 100	> 100	> 100	> 100	> 100	> 100	> 100	> 100	> 100	> 100	> 100	–	> 100	–	> 100	> 100	> 100	> 100	> 100	> 100
Nc1ccn(CCOC(c2ccccc2)P(=O)(O)O)c(=O)n1 (configuration not stated)	> 100	> 100	> 100	> 100	> 100	> 100	–	> 100	> 100	> 100	> 100	–	> 100	> 100	> 100	> 100	> 100	> 100	> 100	> 100
